Read-outs that look alike come from different tables or passages of the source.
Assays:
[1] = molecular target: T1, c-Met (cytoplasmic domain) (Homo sapiens, UniProt P08581); assay: c-Met Kinase Assay (same methods as for ALK, with modifications); assay type: biochemical
T1 construct: 10 ng/mL c-Met (cytoplasmic domain, Invitrogen Corporation #PV3143); purchased Invitrogen Corporation PV3143
Procedure, shortened: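 Europium-labeled PT66 antibody (Eu-N1) detects substrate phosphorylation on wells coated with phospholipase C-γ at 10 μg/mL. The kinase, the cytoplasmic domain of c-Met at 10 ng/mL, starts the reaction, which proceeds 15 minutes at 37° C.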

[2] = molecular target: T2, baculovirus-expressed ALK (Homo sapiens, UniProt Q9UM73); assay: ALK Kinase Assay (ELISA-type, time-resolved fluorescence); assay type: biochemical
T2 construct: host or cells: baculovirus expression system
T2 sequence (Q9UM73 19-1620): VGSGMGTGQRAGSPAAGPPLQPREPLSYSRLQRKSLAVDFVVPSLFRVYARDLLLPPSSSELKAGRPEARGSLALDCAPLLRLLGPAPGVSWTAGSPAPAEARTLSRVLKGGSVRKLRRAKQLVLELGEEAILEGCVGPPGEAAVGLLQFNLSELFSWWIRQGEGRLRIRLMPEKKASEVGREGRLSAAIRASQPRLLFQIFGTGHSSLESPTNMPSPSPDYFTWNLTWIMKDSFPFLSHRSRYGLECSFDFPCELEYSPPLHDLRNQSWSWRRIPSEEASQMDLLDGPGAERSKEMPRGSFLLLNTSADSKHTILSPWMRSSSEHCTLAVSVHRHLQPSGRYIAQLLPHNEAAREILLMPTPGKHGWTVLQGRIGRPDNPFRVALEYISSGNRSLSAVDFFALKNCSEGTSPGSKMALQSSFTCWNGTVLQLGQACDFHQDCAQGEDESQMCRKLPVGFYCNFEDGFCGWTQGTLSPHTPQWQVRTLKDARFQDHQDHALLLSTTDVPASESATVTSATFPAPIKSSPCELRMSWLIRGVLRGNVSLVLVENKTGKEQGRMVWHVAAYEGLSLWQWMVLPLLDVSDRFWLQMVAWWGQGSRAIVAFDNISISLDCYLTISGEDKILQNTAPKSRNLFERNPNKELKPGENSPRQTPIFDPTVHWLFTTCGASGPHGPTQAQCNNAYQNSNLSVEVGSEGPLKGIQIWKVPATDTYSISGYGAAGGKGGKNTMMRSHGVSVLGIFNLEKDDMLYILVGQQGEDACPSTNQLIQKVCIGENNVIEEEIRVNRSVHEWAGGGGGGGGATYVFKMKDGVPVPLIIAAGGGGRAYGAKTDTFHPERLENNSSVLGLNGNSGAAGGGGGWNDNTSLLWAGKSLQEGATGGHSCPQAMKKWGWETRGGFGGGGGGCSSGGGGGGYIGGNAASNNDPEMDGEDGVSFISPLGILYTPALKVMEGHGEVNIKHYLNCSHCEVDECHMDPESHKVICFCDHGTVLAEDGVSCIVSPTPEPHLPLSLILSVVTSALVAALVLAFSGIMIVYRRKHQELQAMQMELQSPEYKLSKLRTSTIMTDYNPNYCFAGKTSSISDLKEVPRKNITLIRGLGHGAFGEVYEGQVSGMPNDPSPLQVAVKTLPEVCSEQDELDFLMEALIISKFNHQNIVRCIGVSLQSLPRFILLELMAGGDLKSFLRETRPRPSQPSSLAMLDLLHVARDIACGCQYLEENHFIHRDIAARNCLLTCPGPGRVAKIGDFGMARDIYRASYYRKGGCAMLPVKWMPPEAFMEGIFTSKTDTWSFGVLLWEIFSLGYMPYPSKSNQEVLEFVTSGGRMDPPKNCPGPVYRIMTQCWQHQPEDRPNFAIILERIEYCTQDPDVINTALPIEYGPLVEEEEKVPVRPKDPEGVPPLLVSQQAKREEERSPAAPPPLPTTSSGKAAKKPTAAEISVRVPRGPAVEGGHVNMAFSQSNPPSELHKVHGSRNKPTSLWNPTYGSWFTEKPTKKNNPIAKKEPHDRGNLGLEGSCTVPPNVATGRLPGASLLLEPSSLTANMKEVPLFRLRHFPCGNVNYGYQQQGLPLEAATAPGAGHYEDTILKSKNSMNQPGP
Procedure, shortened: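 Plates coated with phospholipase C-γ substrate (10 μg/mL in TBS); reaction started with 30 ng/ml ALK and run 15 min at 37° C. Phosphorylated substrate detected with Eu-N1-labeled PT66 antibody. IC50 from sigmoidal variable-slope fit of percent inhibition vs log concentration.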

[3] = c-Met kinase inhibition, 1 μM ATP, read-out: cMet Activity
[4] = ALK kinase inhibition, 1 μM ATP, read-out: ALK Activity
[5] = c-Met kinase inhibition, 1 μM ATP (Km level), read-out: cMet Activity
[6] = ALK kinase inhibition, 1 μM ATP (Km level), read-out: ALK Activity
[7] = 1 μM ATP (Km level), read-out: cMet Activity (c-Met Kinase Inhibition, IC50)
[8] = 1 μM ATP (Km level), read-out: ALK Activity (ALK Kinase Inhibition, IC50)
[9] = 1 μM ATP (Km level), 10 ng/mL c-Met, read-out: cMet Activity (c-Met kinase inhibition, IC50 class)
[10] = 1 μM ATP (Km level), 30 ng/ml ALK, 37° C., 15 minutes, read-out: ALK Activity (ALK kinase inhibition, IC50 class)

T1 sequence (P08581 956-1390 limits assumed): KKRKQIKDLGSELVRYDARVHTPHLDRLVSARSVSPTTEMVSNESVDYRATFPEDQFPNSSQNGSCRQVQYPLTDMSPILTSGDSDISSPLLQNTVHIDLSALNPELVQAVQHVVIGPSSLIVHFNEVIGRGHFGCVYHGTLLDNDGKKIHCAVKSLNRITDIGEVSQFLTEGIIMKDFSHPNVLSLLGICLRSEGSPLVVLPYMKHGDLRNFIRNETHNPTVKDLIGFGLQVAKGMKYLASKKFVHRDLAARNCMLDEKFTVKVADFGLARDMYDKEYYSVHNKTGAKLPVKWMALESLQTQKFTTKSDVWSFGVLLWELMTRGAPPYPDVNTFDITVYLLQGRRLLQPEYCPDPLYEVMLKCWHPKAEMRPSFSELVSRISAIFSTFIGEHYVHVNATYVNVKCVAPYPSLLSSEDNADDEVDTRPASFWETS

CNC(=O)c1cccc(F)c1Nc1nc(Nc2ccc3c(c2)N(C(C)=O)CCCC3)ncc1Cl [Example 1489, 2-[2-(1-Acetyl-2,3,4,5-tetrahydro-1H-benzo[b]azepin-8-ylamino)-5-chloro-pyrimidin-4-ylamino]-3-fluoro-N-methyl-benzamide]
IC50 [1, 3]: < 100 nM | IC50 [2, 4]: 100 to 1000 nM

CNC(=O)c1ccccc1Nc1nc(Nc2ccc3c(c2)C2CCC3CN(CCOC)C2)ncc1Cl (stereo not shown) [Example 282, 2-{5-Chloro-2-[10-(2-methoxy-ethyl)-10-aza-tricyclo[6.3.2.0*2,7*]trideca-2,4,6-trien-4-ylamino]-pyrimidin-4-ylamino}-N-methyl-benzamide]
IC50 [1, 5]: < 100 nM | IC50 [2, 6]: < 100 nM

CCN1CC(=O)Nc2cc(Nc3ncc(Cl)c(Nc4ccc(N5CCOCC5)cc4OC)n3)c(OC)cc2C1 [Example 1661, 8-[5-Chloro-4-(2-methoxy-4-morpholin-4-yl-phenylamino)-pyrimidin-2-ylamino]-4-ethyl-7-methoxy-1,3,4,5-tetrahydro-benzo[e][1,4]diazepin-2-one]
IC50 [1, 3]: > 10000 nM | IC50 [2, 4]: < 100 nM

COc1cc2c(cc1Nc1ncc(Cl)c(Nc3ccc(N4CCN(C)CC4)c(C)c3)n1)CCN(CC(=O)N(C)C)CC2 [Example 792, 2-(7-{5-Chloro-4-[3-methyl-4-(4-methyl-piperazin-1-yl)-phenylamino]-pyrimidin-2-ylamino}-8-methoxy-1,2,4,5-tetrahydro-benzo[d]azepin-3-yl)-N,N-dimethyl-acetamide]
IC50 [1, 7]: > 10000 nM | IC50 [2, 8]: < 100 nM

COc1cc2c(cc1Nc1ncc(Cl)c(Nc3ccccc3S(=O)(=O)N(C)C)n1)CCN(CCOP(=O)(O)O)CC2 [Example 1545, Phosphoric acid mono-(2-{7-[5-chloro-4-(2-dimethylsulfamoyl-phenylamino)-pyrimidin-2-ylamino]-8-methoxy-1,2,4,5-tetrahydro-3-benzazepin-3-yl}-ethyl)ester]
IC50 [1, 3]: 1000 to 10000 nM | IC50 [2, 4]: < 100 nM

CNC(=O)c1ccccc1Nc1nc(Nc2ccc3c(c2)NC(=O)CN(Cc2ccccc2)C3)ncc1Cl [Example 1859, 2-[2-(4-Benzyl-2-oxo-2,3,4,5-tetrahydro-1H-benzo[e][1,4]diazepin-8-ylamino)-5-chloro-pyrimidin-4-ylamino]-N-methyl-benzamide]
IC50 [1, 3]: 100 to 1000 nM | IC50 [2, 4]: 100 to 1000 nM

COc1cc2c(cc1Nc1ncc(Cl)c(Nc3cccc(OCC#N)c3)n1)CCOC(=O)N2C [Example 1510, {3-[5-Chloro-2-(3-methoxy-5-methyl-6-oxo-5,6,8,9-tetrahydro-7-oxa-5-aza-benzocyclohepten-2-ylamino)-pyrimidin-4-ylamino]-phenoxy}-acetonitrile]
IC50 [1, 3]: > 10000 nM | IC50 [2, 4]: < 100 nM

COCCN1CCc2ccc(Nc3ncc(Cl)c(Nc4ccccc4OCC(N)=O)n3)cc2CC1 [Example 1241, 2-(2-{5-Chloro-2-[3-(2-methoxy-ethyl)-2,3,4,5-tetrahydro-1H-3-benzazepin-7-ylamino]-pyrimidin-4-ylamino}-phenoxy)-acetamide]
IC50 [1, 9]: 100 to 1000 nM | IC50 [2, 10]: 100 to 1000 nM

CN(C)C(=O)CN1CCc2ccc(Nc3ncc(Cl)c(N[C@@H]4CCCC[C@H]4NS(C)(=O)=O)n3)cc2CC1 [Example 1371, 2-{7-[5-Chloro-4-((1R,2R)-2-methanesulfonylamino-cyclohexylamino)-pyrimidin-2-ylamino]-1,2,4,5-tetrahydro-benzo[d]azepin-3-yl}-N,N-dimethyl-acetamide]
IC50 [1, 9]: 100 to 1000 nM | IC50 [2, 10]: < 100 nM

NC(=O)C1C2C=CC(C2)C1Nc1nc(Nc2ccc3c(c2)CCC(N2CCOCC2)CC3)ncc1Cl (stereo not shown) [Example 867, 3-[5-Chloro-2-(7-morpholin-4-yl-6,7,8,9-tetrahydro-5H-benzocyclohepten-2-ylamino)-pyrimidin-4-ylamino]-bicyclo[2.2.1]hept-5-ene-2-carboxylic acid amide]
IC50 [1, 7]: 100 to 1000 nM | IC50 [2, 8]: < 100 nM

COc1cc(N2CCOCC2)ccc1Nc1nc(Nc2ccc3c(c2)CCC(=O)CC3)ncc1Cl [Example 175, 2-[5-Chloro-4-(2-methoxy-4-morpholin-4-yl-phenylamino)-pyrimidin-2-ylamino]-5,6,8,9-tetrahydro-benzocyclohepten-7-one]
IC50 [1, 5]: 1000 to 10000 nM | IC50 [2, 6]: < 100 nM
